Source: patent US7208509B2, “Non-nucleoside reverse transcriptase inhibitors” (Roche Palo Alto LLC, priority 2003, dated 2007)
pIC50: −log10 of the molar value.

Molecular target: HIV-1 RT (Human immunodeficiency virus type 1 group M subtype B, UniProt P03366)
Assay: HIV Reverse Transcriptase Assay: Inhibitor IC50 Determination
Format: biochemical
Conditions: purified recombinant enzyme, poly(rA)/oligo(dT)16 template-primer, [3H] dTTP, 37° C. for 30 min; read-out: RT inhibition IC50
Description: HIV Reverse Transcriptase Assay: Inhibitor IC50 Determination
HIV-1 RT assay was carried out in 96-well Millipore MultiScreen MADVNOB50 plates using purified recombinant enzyme and a poly(rA)/oligo(dT)16 template-primer in a total volume of 50 μL. The assay constituents were 50 mM Tris/HCl, 50 mM NaCl, 1 mM EDTA, 6 mM MgCl2, 5 μM dTTP, 0.15 μCi [^3H] dTTP, 5 μg/ml poly (rA) pre annealed to 2.5 μg/ml oligo (dT)16 and a range of inhibitor concentrations in a final concentration of 10% DMSO. Reactions were initiated by adding 4 nM HIV-1 RT and after incubation at 37° C. for 30 min, they were stopped by the addition of 50 μl ice cold 20% TCA and allowed to precipitate at 4° C. for 30 min. The precipitates were collected by applying vacuum to the plate and sequentially washing with 3×200 μl of 10% TCA and 2×200 μl 70% ethanol. Finally, the plates were dried and radioactivity counted in a Packard TopCounter after the addition of 25 μl scintillation fluid per well. IC50's were calculated by plotting % inhibition versus log10 inhibitor concentrations.

Row | SMILES | pIC50
1 | O=c1[nH]nc(Cc2ccc(Cl)c(Oc3ccccc3Cl)c2)s1 [Compound 4, 5-[4-Chloro-3-(2-chloro-phenoxy)-benzyl]-3H-[1,3,4]thiadiazol-2-one] | 6.71
2 | CCn1c(Cc2ccc(Cl)c(Oc3ccccc3Cl)c2)n[nH]c1=O [Compound 7, 5-[4-Chloro-3-(2-chloro-phenoxy)-benzyl]-4-ethyl-2,4-dihydro-[1,2,4]triazol-3-one] | 6.35
3 | Cn1c(Cc2ccc(Cl)c(Oc3cccc(Cl)c3)c2)n[nH]c1=O [Compound 8, 5-[4-Chloro-3-(3-chloro-phenoxy)-benzyl]-4-methyl-2,4-dihydro-[1,2,4]triazol-3-one] | 6.54
4 | CCn1c(Cc2ccc(Cl)c(Oc3cccc(Cl)c3)c2)n[nH]c1=O [Compound 9, 5-[4-Chloro-3-(3-chloro-phenoxy)-benzyl]-4-ethyl-2,4-dihydro-[1,2,4]triazol-3-one] | 6.35
